Measurements from patent US4388304A, “Angiotensin-II analogues with antagonizing effects, containing an ester group in position 8, and a process for the preparation thereof” (Richter Gedeon Vegyeszeti Gyar RT, priority 1980, dated 1983).

System: narcotized male cats
Test: Antagonism of Hypertensin (angiotensin-II) infusion-induced blood pressure rise in narcotized male cats
Type: in vivo, cat
Description: The antagonistic effects of the new compounds of the general formula (I) were investigated on narcotized male cats. After treating the animals with a ganglion blocking agent and bisecting the cervical vagus nerves on both side, an infusion of Hypertensin (CIBA) was given to the animals at a rate of 0.5 μg/kg/min. When the blood pressure of the animals reached a steady, increased level, the substance to be tested was administered either intravenously or subcutaneously in physiological saline solution or as an aqueous solution which also contained a carrier. The blood pressure drop was measured in mm Hg units, and the extent of decrease was expressed in percent related to the value before treatment. The statistical evaluation was performed on the basis of the blood pressure differences, by Student's single sample "t" test. The term "duration of effect" denotes the period elapsed until the observation of the last, still significant (p=5%) blood pressure difference.

[1] = s.c., carboxymethyl cellulose (CMC), dose 50 μg/kg
[2] = s.c., carboxymethyl cellulose (CMC), dose 100 μg/kg
[3] = s.c., physiological saline, dose 50 μg/kg
[4] = s.c., physiological saline, dose 100 μg/kg
[5] = s.c., carboxymethyl cellulose (CMC), dose 200 μg/kg

Row | SMILES | blood pressure decrease, percent related to the value before treatment (i.v., dose 10 μg/kg) | blood pressure decrease, percent related to the value before treatment (i.v., dose 20 μg/kg) | duration of effect (i.v., dose 20 μg/kg) | blood pressure decrease, percent related to the value before treatment [1] | duration of effect [1] | blood pressure decrease, percent related to the value before treatment [2] | duration of effect [2] | blood pressure decrease, percent related to the value before treatment [3] | duration of effect [3] | blood pressure decrease, percent related to the value before treatment [4] | duration of effect [4] | blood pressure decrease, percent related to the value before treatment (s.c., gelatine, dose 200 μg/kg) | duration of effect (s.c., gelatine, dose 200 μg/kg) | also measured
1 | CC[C@H](C)[C@H](NC(=O)[C@H](Cc1ccc(O)cc1)NC(=O)[C@@H](NC(=O)[C@H](CCCNC(=N)N)NC(=O)CNC)C(C)C)C(=O)N[C@@H](Cc1c[nH]cn1)C(=O)N1CCC[C@H]1C(=O)N[C@@H](C)C(=O)OC [(Sar^1,Ala--OMe^8)-Ang-II, (sarcosine^1, alanine methyl ester^8)-angiotensin-II] | 18% | 29% | 60 min | 11% | 22 min | 18% | 22 min | 20% | 45 min | 20% | 45 min |  |  | duration of effect (i.v., dose 10 μg/kg): 12 min
2 | CC[C@H](C)[C@H](NC(=O)[C@H](Cc1ccc(O)cc1)NC(=O)[C@@H](NC(=O)[C@H](CCCNC(=N)N)NC(=O)CNC)C(C)C)C(=O)N[C@@H](Cc1c[nH]cn1)C(=O)N1CCC[C@H]1C(=O)N[C@H](C(=O)OC)[C@@H](C)OC [(Sar^1,Thr/Me/--OMe^8)-Ang-II, (sarcosine^1, threonine/Me/methyl ester^8)-angiotensin-II] |  | 12% | 12 min |  |  |  |  |  |  | 27% | 45 min |  |  | 
3 | CNCC(=O)N[C@@H](CCCN=C(N)N)C(=O)N[C@H](C(=O)N[C@@H](Cc1ccc(O)cc1)C(=O)N[C@H](C(=O)N[C@@H](Cc1cnc[nH]1)C(=O)N1CCC[C@H]1C(=O)N[C@@H](C)C(=O)O)C(C)C)C(C)C [Saralasin, (Sar^1, Ala^8)-angiotensin-II, reference compound] | 32% |  |  |  |  | 23% | 45 min |  |  | 29% |  | 23% | .phi. | blood pressure decrease, percent related to the value before treatment [5]: 28%; duration of effect [5]: 90 min; blood pressure decrease, percent related to the value before treatment (s.c., physiological saline, dose 200 μg/kg): 24%
4 | CC[C@H](C)[C@H](NC(=O)[C@H](Cc1ccc(O)cc1)NC(=O)[C@@H](NC(=O)[C@H](CCCNC(=N)N)NC(=O)CNC)C(C)C)C(=O)N[C@@H](Cc1c[nH]cn1)C(=O)N1CCC[C@H]1C(=O)N[C@H](C(=O)OC)[C@@H](C)CC [(Sar^1,Ile--OMe^8)-Ang-II, (sarcosine^1, isoleucine methyl ester^8)angiotensin-II] |  | 21% | 25 min | 9% | .phi. | 17% | 200 min | 8% | 180 min | 25% | 240 min | 23% | 300 min | blood pressure decrease, percent related to the value before treatment (i.v., dose 40 μg/kg): 20%; duration of effect (i.v., dose 40 μg/kg): 38 min; blood pressure decrease, percent related to the value before treatment (s.c., gelatine, dose 100 μg/kg): 5%; duration of effect (s.c., gelatine, dose 100 μg/kg): 15 min
